{"source": "patent US20110143406A1", "about": "“Novel (S,S) -Butanediol Dehydrogenase, Gene for the Same, and Use of the Same” (Kaneka Corporation, priority 2006, published 2011)"}
{"system": "not listed separately", "test": "Optimum temperature for action of ROB", "type": "biochemical, Ochrobactrum sp. KNKc71-3", "conditions": "(2S,3S)-2,3-butanediol oxidation, measured at 10 to 70° C., pH 8.0", "method": "Using the purified ROB obtained in Example 1, (2S,3S)-2,3-butanediol oxidation activity measurements were carried out at 10 to 70° C. In the activity measurements, (2S,3S)-2,3-butanediol (0.1 M), NAD^+ 2 mM and the enzyme solution were added to 100 mM phosphate buffer (pH 8.0), the reaction was allowed to proceed at 10 to 70° C. for 1 minute, and the increase in absorbance at the wavelength 340 nm were measured.", "units": {"optimum temperature for the activity": "°C"}}
{"molecule": "ROB: purified (S,S)-butanediol dehydrogenase from Ochrobactrum sp. KNKc71-3, amino acid sequence SEQ ID NO:1", "optimum temperature for the activity": 70}
{"system": "not listed separately", "test": "Specific oxidation activity of purified enzyme", "type": "biochemical, Ochrobactrum sp. KNKc71-3", "conditions": "(2S,3S)-2,3-butanediol 100 mM, NAD+ 2 mM, pH 8.0, 30° C.", "method": "In the examples described below, the oxidation activity of (S,S)-butanediol dehydrogenase was determined by adding (2S,3S)-2,3-butanediol (100 mM), NAD^+ (2 mM) and an enzyme solution to 100 mM phosphate buffer (pH 8.0) and measuring the increase in absorbance at the wavelength 340 nm at 30° C. The enzyme activity reducing 1 μmol of NAD^+ to NADH per minute was defined as 1 unit.\nAmmonium sulfate was added to this active fraction to a concentration of 1 M, and the mixture was submitted to a Phenyl-TOYOPEARL 650M (product of Tosoh) column (50 ml) equilibrated in advance with 10 mM phosphate buffer (pH 7.0) containing 1 M ammonium sulfate for adsorption of the enzyme. After washing the column with the same buffer, the active fraction was eluted on a linear gradient from 1 M to 0 M ammonium sulfate. Ammonium sulfate was added to this active fraction to a concentration of 1.2 M, and the mixture was submitted to a Butyl-TOYOPEARL 650S (product of Tosoh) column (25 ml) equilibrated in advance with 10 mM phosphate buffer (pH 7.0) containing 1.2 M ammonium sulfate for adsorption of the enzyme. After washing the column with the same buffer, the active fraction was eluted on a linear gradient from 1.2 M to 0 M ammonium sulfate. This active fraction was analyzed by sodium dodecyl sulfate-polyacrylamide electrophoresis and found to give a single band. […]"}
{"molecule": "ROB: purified (S,S)-butanediol dehydrogenase from Ochrobactrum sp. KNKc71-3, amino acid sequence SEQ ID NO:1", "specific activity": "about 119 U/mg-protein"}
{"system": "ROB ((S,S)-butanediol dehydrogenase)", "test": "not given", "type": "biochemical, Ochrobactrum sp. KNKc71-3", "conditions": "reduction; each compound 1 mM, NADH 0.167 mM, phosphate buffer pH 5.5, 30° C., 3 minutes; activity against 2,3-butanedione taken as 100", "units": {"Relative activity (%)": "%"}}
{"molecule": "CCOC(=O)C(C)=O", "note": "[Ethyl pyruvate]", "Relative activity (%)": 176}
{"molecule": "CCC(C)=O", "note": "[2-butanone]", "Relative activity (%)": 0.9}
{"molecule": "CCCCCCC(C)=O", "note": "[2-octanone]", "Relative activity (%)": 2.8}
{"molecule": "CCCC(C)=O", "note": "[2-pentanone]", "Relative activity (%)": 2.8}
{"molecule": "COC(=O)CC(C)=O", "note": "[Methyl acetoacetate]", "Relative activity (%)": 65.1}
{"molecule": "COC(=O)C(C)=O", "note": "[Methyl pyruvate]", "Relative activity (%)": 136}
{"molecule": "CCOC(=O)CC(=O)CCl", "note": "[Ethyl 4-chloroacetoacetate]", "Relative activity (%)": 21.7}
{"molecule": "O=C(CO)CCl", "note": "[1-chloro-3-hydroxyacetone]", "Relative activity (%)": 94.3}
{"molecule": "CCCCCC(C)=O", "note": "[2-heptanone]", "Relative activity (%)": 3.8}
{"molecule": "CCOC(=O)C(Cl)C(C)=O", "note": "(stereo not drawn) [Ethyl 2-chloroacetoacetate]", "Relative activity (%)": 58.5}
{"molecule": "CC(=O)C(C)=O", "note": "[2,3-butanedione]", "Relative activity (%)": 100}
{"molecule": "CCCCC(C)=O", "note": "[2-hexanone]", "Relative activity (%)": 2.8}
{"molecule": "CC(=O)CO", "note": "[Hydroxyacetone]", "Relative activity (%)": 17.9}
{"system": "ROB ((S,S)-butanediol dehydrogenase)", "test": "Substrate specificity of ROB: oxidation activity", "type": "biochemical, Ochrobactrum sp. KNKc71-3", "conditions": "each compound 10 mM, NAD+ 2 mM, phosphate buffer pH 8.0, 30° C., 1 minute, activity against 2,3-butanediol taken as 100", "method": "Using the purified ROB obtained in Example 1, oxidation activity measurements were carried out by adding NAD^+ (2 mM), each compound (10 mM) shown in Table 2 and the enzyme solution to 100 mM phosphate buffer (pH 8.0), the reaction was allowed to proceed at 30° C. for 1 minute, and the increase in absorbance at the wavelength 340 nm was measured. The relative activity data are summarized in Table 2, with the activity against 2,3-butanediol being taken as 100.", "units": {"Relative activity (%)": "%"}}
{"molecule": "CCC(O)CO", "note": "(stereo not drawn) [1,2-butanediol]", "Relative activity (%)": 8.2}
{"molecule": "CCCCO", "note": "[1-butanol]", "Relative activity (%)": 0}
{"molecule": "CC(O)CCl", "note": "(stereo not drawn) [1-chloro-2-propanol]", "Relative activity (%)": 7.7}
{"molecule": "CCC(O)CC", "note": "[3-pentanol]", "Relative activity (%)": 3.3}
{"molecule": "CCCO", "note": "[1-propanol]", "Relative activity (%)": 0}
{"molecule": "CCO", "note": "[Ethanol]", "Relative activity (%)": 0}
{"molecule": "CC(C)O", "note": "[2-propanol]", "Relative activity (%)": 5.1}
{"molecule": "CC(O)CCCO", "note": "(stereo not drawn) [1,4-pentanediol]", "Relative activity (%)": 3.3}
{"molecule": "CC(=O)C(C)O", "note": "(stereo not drawn) [Acetoin]", "Relative activity (%)": 0.4}
{"molecule": "CCOC(=O)C(C)O", "note": "(stereo not drawn) [Ethyl lactate]", "Relative activity (%)": 1.6}
{"molecule": "CC(O)c1ccccc1", "note": "(stereo not drawn) [1-phenyl ethanol]", "Relative activity (%)": 6.8}
{"molecule": "CCC(C)O", "note": "(stereo not drawn) [2-butanol]", "Relative activity (%)": 40.4}
{"molecule": "CC(O)CCO", "note": "(stereo not drawn) [1,3-butanediol]", "Relative activity (%)": 0.5}
{"molecule": "CC(O)C(C)O", "note": "(stereo not drawn) [2,3-butanediol]", "Relative activity (%)": 100}
{"molecule": "CCCCCCC(C)O", "note": "(stereo not drawn) [2-octanol]", "Relative activity (%)": 59.6}
{"molecule": "CC(O)CO", "note": "(stereo not drawn) [1,2-propanediol]", "Relative activity (%)": 57.9}
{"molecule": "COC(=O)C(C)O", "note": "(stereo not drawn) [Methyl lactate]", "Relative activity (%)": 0.9}
{"molecule": "CCCC(O)CO", "note": "(stereo not drawn) [1,2-pentanediol]", "Relative activity (%)": 4.4}
{"molecule": "CC(O)Cc1ccccc1", "note": "(stereo not drawn) [1-phenyl-2-propanol]", "Relative activity (%)": 43.0}
{"molecule": "CO", "note": "[Methanol]", "Relative activity (%)": 0}
{"molecule": "OCC(O)CCl", "note": "(stereo not drawn) [3-chloro-1,2-propanediol]", "Relative activity (%)": 3.9}
{"molecule": "CCCC(C)O", "note": "(stereo not drawn) [2-pentanol]", "Relative activity (%)": 58.8}
{"system": "ROB ((S,S)-butanediol dehydrogenase)", "test": "not given", "type": "biochemical, Ochrobactrum sp. KNKc71-3", "conditions": "pH 8", "units": {"Relative activity (%)": "%"}}
{"molecule": "O=C(O)CN(CCN(CC(=O)O)CC(=O)O)CC(=O)O", "note": "[EDTA]", "Relative activity (%)": 95}
{"molecule": "[Cl-].[Cl-].[Co+2]", "note": "[CoCl2]", "Relative activity (%)": 66}
{"molecule": "CC(=O)[O-].[Na+]", "note": "[Sodium acetate]", "Relative activity (%)": 96}
{"molecule": "CCN1C(=O)C=CC1=O", "note": "[N-ethylmaleimide]", "Relative activity (%)": 93}
{"system": "ROB ((S,S)-butanediol dehydrogenase)", "test": "not given", "type": "biochemical, Ochrobactrum sp. KNKc71-3", "conditions": "reagent 0.1 mM; (2S,3S)-2,3-butanediol 0.1 M, NAD+ 2 mM, pH 8.0, 30° C.; reagent-free activity taken as 100", "units": {"Relative activity (%)": "%"}}
{"molecule": "[Cl][Hg][Cl]", "note": "[HgCl2]", "Relative activity (%)": 41}
{"system": "ROB ((S,S)-butanediol dehydrogenase)", "test": "not given", "type": "biochemical, Ochrobactrum sp. KNKc71-3", "conditions": "reagent 1.0 mM; (2S,3S)-2,3-butanediol 0.1 M, NAD+ 2 mM, pH 8.0, 30° C.; reagent-free activity taken as 100", "units": {"Relative activity (%)": "%"}}
{"molecule": "O=S(=O)([O-])[O-].[Cu+2]", "note": "[CuSO4]", "Relative activity (%)": 81}
{"molecule": "[Ba+2].[Cl-].[Cl-]", "note": "[BaCl2]", "Relative activity (%)": 56}
{"molecule": "[Cl][Mn][Cl]", "note": "[MnCl2]", "Relative activity (%)": 87}
{"molecule": "O=C(O)c1cc[c]([Hg][Cl])cc1", "note": "[p-chloromercuribenzoate]", "Relative activity (%)": 84}
{"molecule": "O=[N+]([O-])[O-].[Ag+]", "note": "[AgNO3]", "Relative activity (%)": 30}
{"molecule": "[Ca+2].[Cl-].[Cl-]", "note": "[CaCl2]", "Relative activity (%)": 86}
{"molecule": "O=S(=O)([O-])[O-].[Zn+2]", "note": "[ZnSO4]", "Relative activity (%)": 88}
{"molecule": "O=S(=O)([O-])[O-].[Mg+2]", "note": "[MgSO4]", "Relative activity (%)": 91}
{"molecule": "O=S(=O)(F)Cc1ccccc1", "note": "[Phenylmethylsulfonyl fluoride]", "Relative activity (%)": 75}
{"molecule": "[Cl][Hg][Cl]", "note": "[HgCl2]", "Relative activity (%)": 0}
{"system": "ROB ((S,S)-butanediol dehydrogenase)", "test": "not given", "type": "biochemical, Ochrobactrum sp. KNKc71-3", "conditions": "oxidation; each compound 10 mM, NAD+ 2 mM, pH 8.0, 30° C., 1 minute; activity against (2S,3S)-2,3-butanediol taken as 100", "method": "(§1) Using the purified ROB obtained in Example 1, oxidation activity measurement were carried out using, as substrates, optical isomers of each of 2-butanol, 2-pentanol, 1,2-propanediol, 2,3-butanediol and 3-chloro-1,2-propanediol. NAD^+ (2 mM), each compound (10 mM) and the enzyme solution were added to 100 mM phosphate buffer (pH 8.0), the reaction was allowed to proceed at 30° C. for 1 minute, and the increase in absorbance at the wavelength 340 nm.", "units": {"Relative activity (%)": "%"}}
{"molecule": "C[C@H](O)CO", "note": "[(S)-1,2-propanediol]", "Relative activity (%)": 16.7}
{"molecule": "C[C@@H](O)CO", "note": "[(R)-1,2-propanediol]", "Relative activity (%)": 8.0}
{"molecule": "OC[C@@H](O)CCl", "note": "[(R)-3-chloro-1,2-propanedio]", "Relative activity (%)": 3.5}
{"molecule": "C[C@H](O)[C@H](C)O", "note": "[(2S,3S)-2,3-butanediol]", "Relative activity (%)": 100}
{"molecule": "CCC[C@H](C)O", "note": "[(S)-2-pentanol]", "Relative activity (%)": 58.9}
{"molecule": "C[C@@H](O)[C@@H](C)O", "note": "[(2R,3R)-2,3-butanediol]", "Relative activity (%)": 0.6}
{"molecule": "OC[C@H](O)CCl", "note": "[(S)-3-chloro-1,2-propanediol]", "Relative activity (%)": 0.1}
{"molecule": "CCC[C@@H](C)O", "note": "[(R)-2-pentanol]", "Relative activity (%)": 2.9}
{"molecule": "CC(O)C(C)O", "note": "(stereo not drawn) [meso-2,3-butanediol]", "Relative activity (%)": 38.9}
{"system": "ROB ((S,S)-butanediol dehydrogenase)", "test": "not given", "type": "biochemical, Ochrobactrum sp. KNKc71-3", "conditions": "pH 8", "remark": "another data set of the same source", "method": "as §1", "units": {"Relative activity (%)": "%"}}
{"molecule": "CC[C@@H](C)O", "note": "[(R)-2-butanol]", "Relative activity (%)": 3.2}
{"molecule": "CC[C@H](C)O", "note": "[(S)-2-butanol]", "Relative activity (%)": 44.2}
